Values after ≈ are worked out from the molar mass of the structure shown. Counter-ions that a name gives are not always drawn. Like-named read-outs stand apart in the source and are kept apart here.
Legend:
[1] = system: Blutdruck der Katze; experiment: Blood pressure increasing effect after intraduodenal application in anaesthetised cats; assay type: in vivo, Katzen; details: Felis catus, aqueous solution, anaesthetised cat; for change in vivo at 3 mg/kg: 3 mg/kg intraduodenal; for change in vivo at 10 mg/kg: 10 mg/kg intraduodenal; for change in vivo at 30 mg/kg: 30 mg/kg intraduodenal; for change in vivo at 1 mg/kg: 1 mg/kg intraduodenal; for change in vivo at 0.3 mg/kg: 0.3 mg/kg intraduodenal
Method: An 2-4 kg schweren, männlichen und weiblichen, narkotisierten Katzen [Chloralose (70 mg/kg) und Urethan 25 proz. (200 mg/kg)i.p.] wurden die Substanzen in wäßriger Lösung intraduodenal appliziert. Der Anstieg des systolischen und des diastolischen Blutdruckes wird in Prozenten des Ausgangswertes angegeben. N bedeutet Anzahl der Versuchstiere pro Versuch.

[2] = system: Blutdruck; details: oral; from the literature (E. Muschöll 1967); cited from earlier work
[3] = Minimum solubility in water; details: for Mindestlöslichkeit in Wasser: Tab. 1, minimum solubility (lower bound) of the salts in water; for solubility: water
[4] = read-out: Diastol. Blutdruck (Anstieg)
[5] = read-out: Systol. Blutdruck (Anstieg)

SMILES | change in vivo at 3 mg/kg [1, 4] [%] | change in vivo at 3 mg/kg [1, 5] [%] | change in vivo at 10 mg/kg [1, 4] [%] | change in vivo at 10 mg/kg [1, 5] [%] | change in vivo at 1 mg/kg [1, 4] [%] | change in vivo at 1 mg/kg [1, 5] [%] | Mindestlöslichkeit in Wasser [3] [%] | other results
NCC(O)c1cccc(O)c1 (racemic) [Norfenefrin, DL-1-(3'-Hydroxyphenyl)-2-aminoethanol, reference compound] | 18 ± 6 | 25 ± 9 | 25 ± 5 | 34 ± 7 |  |  |  | change in vivo at 30 mg/kg [1, 4]: 37 ± 9%; change in vivo at 30 mg/kg [1, 5]: 41 ± 7%; orale Wirksamkeit [2]: geringe orale Wirksamkeit
CC(=O)Oc1cccc(C(O)CN)c1.Cl (centres unmarked) [Verbindung 1, 1-(3'-Acetoxyphenyl)-2-aminoethanol-hydrochlorid] | 29 ± 6 | 35 ± 8 | 48 ± 8 | 59 ± 6 | 20 ± 10 | 27 ± 10 | 50 | 
CCC(=O)Oc1cccc(C(O)CN)c1 (centres unmarked) [Verbindung 2] |  |  |  |  |  |  | 50 | 
CCCC(=O)Oc1cccc(C(O)CN)c1 (centres unmarked) [Verbindung 3] |  |  |  |  |  |  | 50 | 
CC(C)C(=O)Oc1cccc(C(O)CN)c1 (centres unmarked) [Verbindung 4] |  |  |  |  |  |  | 50 | 
CCCCC(=O)Oc1cccc(C(O)CN)c1 (centres unmarked) [Verbindung 5] | 29 ± 8 | 42 ± 10 |  |  | 31 ± 8 | 33 ± 7 | 50 | change in vivo at 0.3 mg/kg [1, 4]: 19 ± 11%; change in vivo at 0.3 mg/kg [1, 5]: 20 ± 10%
CC(C)CC(=O)Oc1cccc(C(O)CN)c1 (centres unmarked) [Verbindung 6] |  |  |  |  |  |  | 50 | 
CC(C)(C)C(=O)Oc1cccc(C(O)CN)c1.Cl (centres unmarked) [Verbindung 7, 1-(3'-Pivaloyloxyphenyl)-2-aminoethanol-hydrochlorid] | 29 ± 5 | 37 ± 6 | 74 ± 13 | 79 ± 8 | 17 ± 6 | 17 ± 7 | 50 | 
CCCCCC(=O)Oc1cccc(C(O)CN)c1 (centres unmarked) [Verbindung 8] |  |  |  |  |  |  | 50 | 
CC(C)CCC(=O)Oc1cccc(C(O)CN)c1 (centres unmarked) [Verbindung 9] |  |  |  |  |  |  | 50 | 
CCC(CC)C(=O)Oc1cccc(C(O)CN)c1 (centres unmarked) [Verbindung 10] | 48 ± 11 | 48 ± 11 | 89 ± 14 | 85 ± 11 | 19 ± 3 | 25 ± 5 | 50 | 
CC(C)(C)CC(=O)Oc1cccc(C(O)CN)c1 (centres unmarked) [Verbindung 11] |  |  |  |  |  |  | 50 | 
CCCCCCC(=O)Oc1cccc(C(O)CN)c1.Cl (centres unmarked) [Verbindung 12, 1-(3'-Heptanoyloxyphenyl)-2-aminoethanol-hydrochlorid] | 65 ± 17 | 70 ± 14 | 51 ± 11 | 61 ± 10 | 17 ± 7 | 21 ± 8 | 50 | 
CCCC(CC)(CC)C(=O)Oc1cccc(C(O)CN)c1 (centres unmarked) [Verbindung 13] |  |  |  |  |  |  | 50 | 
CCCCCCCCCCCC(=O)Oc1cccc(C(O)CN)c1 (centres unmarked) [Verbindung 14] | 25 ± 8 | 39 ± 9 | 90 ± 25 | 87 ± 15 | 16 ± 4 | 23 ± 6 |  | solubility [3]: 150 mg/mL (≈ 447 mM)
NCC(O)c1cccc(OC(=O)Cc2ccccc2)c1 (centres unmarked) [Verbindung 15] | 36 ± 11 | 50 ± 11 | 81 ± 15 | 88 ± 15 | 20 ± 4 | 24 ± 3 | 50 | 
CC(C(=O)Oc1cccc(C(O)CN)c1)c1ccccc1 (centres unmarked) [Verbindung 16] | 31 ± 8 | 38 ± 12 | 55 ± 13 | 63 ± 9 | 10 ± 3 | 20 ± 7 | 50 | 
CCC(C(=O)Oc1cccc(C(O)CN)c1)c1ccccc1 (centres unmarked) [Verbindung 17] | 31 ± 6 | 42 ± 9 | 38 ± 6 | 47 ± 10 | 25 ± 7 | 29 ± 7 |  | solubility [3]: 200 mg/mL (≈ 668 mM)
NCC(O)c1cccc(OC(=O)c2ccccc2)c1 (centres unmarked) [Verbindung 18] |  |  |  |  |  |  | 50 | 
Cc1ccccc1C(=O)Oc1cccc(C(O)CN)c1 (centres unmarked) [Verbindung 19] | 21 ± 6 | 26 ± 7 | 32 ± 11 | 37 ± 7 | 15 ± 7 | 17 ± 5 | 50 | 
Cc1ccc(C(=O)Oc2cccc(C(O)CN)c2)cc1 (centres unmarked) [Verbindung 20, 1-[3'-(4'-Methylbenzoyloxy)phenyl]-2-aminoethanol-hydrochlorid] | 100 ± 24 | 122 ± 25 |  |  | 26 ± 6 | 28 ± 6 | 50 | change in vivo at 0.3 mg/kg [1, 4]: 17 ± 10%; change in vivo at 0.3 mg/kg [1, 5]: 20 ± 10%
CC(=O)NCC(O)c1cccc(O)c1 (centres unmarked) [Verbindung 21, reference compound] |  |  |  |  |  |  |  | solubility [3]: 100 mg/mL (≈ 512 mM)
CC(=O)NCC(OC(C)=O)c1cccc(O)c1 (centres unmarked) [Verbindung 22, reference compound] |  |  |  |  |  |  |  | solubility [3]: 12 mg/mL (≈ 50.6 mM)
CC(C)(C)C(=O)NCC(O)c1cccc(O)c1 (centres unmarked) [Verbindung 23, reference compound] |  |  |  |  |  |  |  | solubility [3]: 10 mg/mL (≈ 42.1 mM)
CC(C)(C)C(=O)NCC(OC(=O)C(C)(C)C)c1cccc(O)c1 (centres unmarked) [Verbindung 24, reference compound] |  |  |  |  |  |  |  | solubility [3]: 0.1 mg/mL (≈ 0.311 mM)
CC(C)(C)C(=O)NCC(OC(=O)C(C)(C)C)c1cccc(OC(=O)C(C)(C)C)c1 (centres unmarked) [Verbindung 25, reference compound] |  |  |  |  |  |  |  | solubility [3]: 0.1 mg/mL (≈ 0.247 mM)
